Here are results for 17 compounds from patent US8541442B2, “Indole derivatives as anticancer agents” (Janssen Pharmaceutica N.V., priority 2009, dated 2013).

Like-named read-outs stand apart in the source and are kept apart here.

Experiment [1] deals with non-small cell lung cancer cell line H1299. Description: Alamar Blue cell proliferation assay, H1299. Format: cell-based. The settings on record: for IC50: Homo sapiens, NCI-H1299, H1299 cells, read-out: H1299 cell proliferation inhibition pIC50 (converted); for H1299 cell proliferation inhibition pIC50: H1299 cells. As for the experimental part:
(§1) For experiments in 384 wells plates the cells were seeded at a density of 5×10^3 cells/ml in Falcon 384-well culture plates (Life Technologies, Merelbeke, Belgium), black with clear bottom, in 45 μl culture medium. Cells were allowed to adhere to plastic for 24 hr. The tested compound was pre-diluted (1/50 in culture medium) and 5 μl pre-diluted compound was added to the wells. Following 4-day incubation, 10 μl of the Alamar Blue solution was added to each well and the cells were further incubated for 5 hrs (A2780) at 37° C. The fluorescence intensity was measured for each well with a Fluorescence plate reader (Fluorskan, Labsystems, 540 nm excitation and 590 nm emission)
(§2) The antiproliferative activity was calculated as percentage of remaining viable cells in treated versus control (untreated cells) conditions. Within an experiment, the result for each experimental condition is the mean of 3 replicate wells. When appropriate, the experiments were repeated to establish full concentration-response curves. When appropriate, IC50-values (concentration of the drug, needed to reduce cell growth to 50% of the control) were computed using probit analysis for graded data (Finney, D. J., Probit Analyses, 2nd Ed. Chapter 10, Graded Responses, Cambridge University Press, Cambridge 1962). Herein the effects of test compounds are expressed as pIC50 (the negative log value of the IC50-value (M)) (see Table 5A).
Compounds were also tested according to the above protocol but using other cell lines: colorectal cancer cell line HCT116, non-small cell lung cancer cell line H1299, human prostate cancer cell line DU145.
In general terms: Alamar Blue is a resazurin reagent that responds to reducing activity.

In experiment [2] the test system is A2780 ovarian cancer cells. Description: Alamar Blue cell proliferation assay, A2780. Format: cell-based, human. The following applies: 4-day incubation; for IC50: Homo sapiens, A2780, 96 h, read-out: A2780 cell proliferation inhibition pIC50 (converted). As for the experimental part: The human A2780 ovarian cancer cells were a kind gift from Dr. T. C. Hamilton (Fox Chase Cancer Centre, Pennsylvania, U.S.A.). The cells were cultured in RPMI 1640 medium supplemented with 2 mM L-Glutamine, 50 μg/ml gentamicin and 10% fetal calf serum.
Potassium Phosphate Buffer 0.1 M (PPB) was made as follows: 2.72 gram KH2PO4 and 13.86 gram K2HPO4 were dissolved in 500 ml milli-Q H2O, the pH was adjusted to pH 7.4 and the volume was brought to 1 liter with milli-Q H2O; the buffer was filter sterilised and stored at room temperature. Resazurin stock solution (PPB-A) was prepared fresh by dissolving 45 mg resazurin in 15 ml PBS. 30 mM potassium ferricyanide (PPB-B) was prepared by dissolving 0.987 gram potassium ferricyanide in 100 ml PPB. 30 mM potassium ferrocyanide (PPB-C) was prepared by dissolving 1.266 gram potassium ferrocyanide in 100 ml PPB.
Mixture of PPB-A, PPB-B and PPB-C was prepared by mixing equal volumes of the respective solutions. Resazurin work solution (herein termed “Alamar Blue” solution) was prepared by diluting said mixture 20×(vol/vol) in PPB and filter sterilising; the Alamar Blue solution could be kept at 4° C. for a maximum of 2 weeks.
as §1, §2

The next experiment deals with human U87 glioma tumor. Description: In vivo anti tumour effects, U87 glioma xenograft. The following applies: U87 xenograft in NMRI Nude mice, 20 mg/kg p.o. QD for 5 days; for response vs control in vivo at 20 mg/kg: Mus musculus, U-87 MG, po. As for the experimental part:
Immuno-deficient (athymic) male NMRI Nude (Nu/Nu) mice (20-25 g obtained from Janvier, France) were used for these studies. Initial weight was approximately […]. All animals were maintained under SPF “full barrier” conditions with free access to food and water. Mice were group housed under a 12-h light:dark cycle (lights on at 06:00 h) at a temperature of 19 to 22° C. and 35 to 40% humidity in Techniplast type-3 IVC cages. Mice were fed a standard Laboratory chow. All experiments were carried out in accordance with the European Communities Council Directives (86/609/EEC) and had to be approved by the local ethical committee. For an established tumor xenograft model (tumor volume ˜200 mm^3), mice were randomized according to tumor volumes, with 5 mice per treatment group.
The human U87 glioma tumor cell line was derived from a patient. Cells were cultured at 37° C. in a humidified atmosphere (5% CO2, 95% air), in DMEM medium supplemented with 2 mM L-glutamine, 2.0 mM sodium pyruvate, 25 units/ml penicillin/25 μg/ml streptomycin and 10% fetal bovine serum. Cells were maintained as cell monolayer cultures, being passaged twice weekly at 3×10^6 cells per T175 flask using the following procedure. Briefly cells were washed with PBS (without Mg^2+, Ca^2+), before addition of trypsin-EDTA to the culture flasks. After detachment of cells the trypsin-EDTA was inactivated by addition of complete medium. Cell suspension was then transferred to 50 ml Falcon tube and centrifuged for 3 min at 1200 rpm. Medium was aspirated, with the cells being re-suspended in an appropriate volume of complete medium. The cells were counted in a haemocytometer and their viability was assessed by 0.25% trypan blue exclusion. An appropriate volume of cell suspension was then added to either a new T175 culture flask(s) or roller bottle containing fresh medium. For large scale-up growth of U87 tumor cells, an appropriate number of roller bottles were seeded with 0.5 to 1×10^7 cells 1 week prior to inoculation of mice. The medium was changed twice during this period, with the last change being the day prior to cell injection. Cells were collected as described above, with the exception that after centrifugation, the cells were re-suspended in cold (4° C.) serum-free medium. Mice were injected in the inguinal region with 1×10^7 cells total in a 200 μl volume.
Human U87 glioma cells were injected directly into the inguinal region of the male NMRI Nude mice (1×10^7 cells/200 μl/animal) on day 0 (D0). On day 7-10 (can vary due to tumor take/growth between cell batches) when tumor volume had reached an approximate average of 200 mm^3, mice were randomized according to tumor volume, with 5 mice per treatment group. Mice were then treated once daily (QD) with either vehicle (10% HP-β-CD) or vehicle containing test compound (20 mg/kg) by gavage (p.o.) administered in a volume of 10 ml/kg body weight for 5 days. Specific tumor measurements were taken on day 6 (24 hours post 5th dose) and then again on day 10. Tumor re-growth (after dosing has stopped) was monitored so that the time-to-reach a volume of 2000 mm^3 (TTR2000) can be recorded. This gives extra information on the duration of drug action on the tumor growth. In general, tumor size and body weights were measured twice weekly, with mice monitored daily for clinical signs of toxicity for the duration of the treatment. Clinical signs of toxicity included (but not limited to), persistent anorexia or dehydration, posture, moribund, lethargy, hypothermia and/or laboured respiration (according to the UKCCCR guidelines for welfare of animals in experimental neoplasia (The UKCCCR (UK Coordinating Committee on Cancer Research) guidelines for the welfare of animals in experimental neoplasia (July 1997); and Workman, P. et al. UKCCCR guideline. Br. J. Cancer. 1998, 77: 1-10). […]

The mark [3] stands for this setting: 144 h, day 6 after start dosing, read-out: % T/C day 6.
[4] abbreviates: 240 h, day 10 after start dosing, read-out: % T/C day 10.
Where [5] appears, read: day 6 after start dosing, 20 mg/kg.
Where [6] appears, read: day 10 after start dosing, 20 mg/kg.

As to `Cc1cc(Nc2ccncc2)ccc1NCCc1c[nH]c2c(C(C)(C)O)cccc12` [Compound 2], the IC50 in experiment [1] was 1150 nM; in experiment [2] it was 41.7 nM. Moreover, the figures for the response vs control in vivo at 20 mg/kg in the experiment with human U87 glioma tumor (setting [3]) and in the experiment with human U87 glioma tumor (setting [4]) were 14% and -0.23%, respectively.
The like results for `Cc1cc(Nc2ccnc3c2CCC3=O)ccc1NCCc1c[nH]c2c(C(C)O)cccc12` (centres unmarked) [Compound 4] were, in that order, 3720 nM, 182 nM, 77% and 129%.
`Cc1cc(Nc2ccnc(CO)c2)ccc1NCCc1c[nH]c2c(C(C)O)cccc12` (centres unmarked) [Compound 5]: the IC50 in experiment [1] was 5890 nM; in experiment [2], 52.5 nM. In addition, the values for the response vs control in vivo at 20 mg/kg with human U87 glioma tumor (setting [3]) and in the experiment on human U87 glioma tumor (setting [4]) were 103% and 67%, respectively.
As to `COC1CCc2c(Nc3ccc(NCCc4c[nH]c5c(C(C)O)cccc45)c(C)c3)ccnc21` (centres unmarked) [Compound 16], in experiment [1], the “H1299 cell proliferation inhibition pIC50” value was determined as 6.73. In addition, the “A2780 cell proliferation inhibition pIC50” value in experiment [2] turned out to be 6.87. Also, the “% T/C day 6” value with human U87 glioma tumor (day 6 after start dosing) is reported as 63%. In the experiment on human U87 glioma tumor (day 10 after start dosing), the “% T/C day 10” value is listed as 64%.
For `COC1CCc2c(Nc3ccc(NCCc4c[nH]c5c(C(C)(C)O)cccc45)cc3)ccnc21` (single isomer, unassigned) [Compound 24], the IC50 is 234 nM in experiment [1] and 66.1 nM in experiment [2]. Besides, the “% T/C day 6” value with human U87 glioma tumor (setting [5]) stood at 60%. Further, the “% T/C day 10” value in the experiment on human U87 glioma tumor (setting [6]) was 1%.
For `CC(C)(O)c1cccc2c(CCNc3ccc(Nc4ccnc5c4CCC5(C)O)cc3)c[nH]c12` (single isomer, unassigned) [Compound 31], the “H1299 cell proliferation inhibition pIC50” value in experiment [1] was determined as 5.84. Also, in experiment [2], the “A2780 cell proliferation inhibition pIC50” value stood at 6.84. Also, the “% T/C day 6” value in the experiment on human U87 glioma tumor (setting [5]) is listed as 179%. Further, the “% T/C day 10” value in the experiment on human U87 glioma tumor (setting [6]) is 1%.
Turning to `Cc1cc(Nc2ccnc3c2CCC3O)ccc1NCCc1c[nH]c2c(CCO)cccc12` (single isomer, unassigned) [Compound 23], the “H1299 cell proliferation inhibition pIC50” value in experiment [1] stood at 5.61. Moreover, the “A2780 cell proliferation inhibition pIC50” value in experiment [2] is on record as 6.52. Besides, the “% T/C day 6” value in the experiment on human U87 glioma tumor (day 6 after start dosing) turned out to be 72%. Moreover, the “% T/C day 10” value in the experiment on human U87 glioma tumor (day 10 after start dosing) worked out at 95%.
For the compound `Cc1cc(Nc2ccnc3c2CCC3(C)O)ccc1NCCc1c[nH]c2c(C(C)(C)O)cccc12` (centres unmarked) [Compound 1], the figures for the IC50 in experiment [1] and in experiment [2] were 871 nM and 115 nM, respectively. Further, the response vs control in vivo at 20 mg/kg in the experiment with human U87 glioma tumor (setting [3]) is 17%; in the experiment with human U87 glioma tumor (setting [4]), 8%.
Regarding `Cc1cc(Nc2ccnc3c2CCC3O)ccc1NCCc1c[nH]c2c(C(C)(C)O)cccc12` (centres unmarked) [Compound 18], the “H1299 cell proliferation inhibition pIC50” value in experiment [1] was determined as 6.38. The “A2780 cell proliferation inhibition pIC50” value in experiment [2] is on record as 7.47. Further, the response vs control in vivo at 20 mg/kg in the experiment on human U87 glioma tumor (setting [3]) is 9%; with human U87 glioma tumor (setting [4]), -3%.
In the case of `Cc1cc(Nc2ccnc3c2CCC3O)ccc1NCCc1c[nH]c2c(CCC(C)O)cccc12` (centres unmarked) [Compound 9], the IC50 in experiment [1] was 6760 nM; in experiment [2], 141 nM. Also, the response vs control in vivo at 20 mg/kg is 145% in the experiment on human U87 glioma tumor (setting [3]) and 113% in the experiment with human U87 glioma tumor (setting [4]).
`Cc1cc(Nc2ccnc3c2CCC3(C)O)ccc1NCCc1c[nH]c2c(C(C)O)cccc12` (centres unmarked) [Compound 10]: in experiment [1], the “H1299 cell proliferation inhibition pIC50” value worked out at 5.68. In addition, the “A2780 cell proliferation inhibition pIC50” value in experiment [2] was 6.70. Further, in the experiment on human U87 glioma tumor (day 6 after start dosing), the “% T/C day 6” value came to 96%. Also, the “% T/C day 10” value with human U87 glioma tumor (day 10 after start dosing) is recorded as 71%.
`CC(C)(O)c1cccc2c(CCNc3ccc(Nc4ccnc5c4CCC5(C)O)cc3)c[nH]c12` (single isomer, unassigned) [Compound 30]: in experiment [1], the “H1299 cell proliferation inhibition pIC50” value was 6.02. Besides, in experiment [2], the “A2780 cell proliferation inhibition pIC50” value is 7.04. Moreover, in the experiment with human U87 glioma tumor (setting [5]), the “% T/C day 6” value is reported as −61%. The “% T/C day 10” value with human U87 glioma tumor (setting [6]) is on record as −10%.
Regarding `C=C(C)c1cccc2c(CCNc3ccc(Nc4ccnc5c4CCC5OC)cc3)c[nH]c12` (centres unmarked) [Compound 7], the IC50 in experiment [1] was 407 nM; in experiment [2], 110 nM.
Consider `COc1cc(Nc2ccnc3c2CCC3O)ccc1NCCc1c[nH]c2c(C(C)(C)O)cccc12` (centres unmarked) [Compound 11], for which the “H1299 cell proliferation inhibition pIC50” value in experiment [1] is listed as 5.81. Also, the “A2780 cell proliferation inhibition pIC50” value in experiment [2] is recorded as 6.55. The “% T/C day 6” value in the experiment on human U87 glioma tumor (day 6 after start dosing) is on record as 72%. Further, in the experiment on human U87 glioma tumor (day 10 after start dosing), the “% T/C day 10” value amounted to 79%.
Take `OCc1cccc2c(CCNc3ccc(Nc4ccnc5c4CCC5O)cc3)c[nH]c12` (centres unmarked) [Compound 6]: the IC50 was 9330 nM in experiment [1] and 214 nM in experiment [2]. Further, the figures for the response vs control in vivo at 20 mg/kg with human U87 glioma tumor (setting [3]) and with human U87 glioma tumor (setting [4]) were 105% and 99%, respectively.
`COC1CCc2c(Nc3ccc(NCCc4c[nH]c5c(C(C)(C)O)cccc45)cc3)ccnc21` (single isomer, unassigned) [Compound 25]: the “% T/C day 6” value in the experiment on human U87 glioma tumor (setting [5]) was 330%. In addition, the “% T/C day 10” value in the experiment with human U87 glioma tumor (setting [6]) was −3%.
Turning to `Cc1cc(Nc2ccnc3c2CCC3O)ccc1NCCc1c[nH]c2c(C(C)(C)O)cccc12` (centres unmarked) [Compound 20], the “H1299 cell proliferation inhibition pIC50” value in experiment [1] came to 5.72. Moreover, in experiment [2], the IC50 is 51.3 nM.
